Data published in patent US6960429B2, “Inhibition of viral gene activities” (priority 1997, dated 2005).
Read-outs that look alike come from different tables or passages of the source.

Key:
[1] = biological target: bEBNA1 (derivative of EBNA1); type: biochemical, Epstein-Barr virus; settings: for Ki: 6.5 nM dimers of bEBNA1, 20 fmols DNA with two EBNA1-binding sites, Ki = concentration of competitor which inhibits linking to 50%, read-out: Ki against bEBNA1; for Ki for linking by bEBNA1 relative to linking by NΔ360: DNA with two EBNA1-binding sites; for Effectiveness of competition with linking by bEBNA1 relative to linking by NΔ360: DNA with two binding sites
Procedure: (§1) Two DNAs used as probes in this study were generated by endonuclease digestion of cloned DNAs. That with two EBNA1-binding sites is the 131 bp, SalI to PstI fragment derived from p880 (30); and that with five GAL4-binding sites is the 109 bp, HinDIII to XbaI fragment derived from G5BCAT (31). DNA fragments were purified from agarose gels. They were quantified by making serial dilutions in the presence of ethidium bromide (0.5 μg/mL) and comparing their intensities, when exposed to ultraviolet light, to that of similar dilutions of a standard DNA. This method distinguishes less than two-fold differences in DNA concentrations. These DNAs were labeled with the Klenow fragment of DNA Polymerase 1 in the presence of dATP, dGTP, dTTP, and ^32P α-dCTP (Amersham), and precipitated three times to remove unincorporated label (32).
(§2) The derivatives of EBNA1 (bEBNA1, NΔ360, NΔ389) and the GAL4 derivatives (GAL4(1-94), GAL4(1-94)&54-89, GAL4(1-94)&331-361, GAL4(1-94)&372-391) used in this study were all produced and purified as previously described (28). Briefly, bEBNA1 lacks amino acids 2 through 7 and all but fifteen amino acids of the gly-gly-ala repeats and was expressed in SF21 cells (23). NΔ360 and NΔ389 lack the first 360 and 389 amino acids, respectively, and were expressed in E. coli. GAL4(1-94) contains amino acids 1 to 94 of the yeast transactivator GAL4 plus eight carboxy-terminal amino acids coded by the poly-cloning region. The fusions designated GAL4(1-94)&#—# contain the indicated residues from EBNA1 cloned in frame into the poly-cloning region. All derivatives and fragments of EBNA1 were derived from the B95-8 viral strain (33, 15).
(§3) A.A. 40-89 and A.A. 331-391 were generated by amplifying the fragment of EBNA1 encoding those amino acids with PCR primers containing SalI and XbaI sites at the 5′ ends. […] The sequence of both clones was verified using an ABI Prism automated sequencer (Applied BioSystems). Expression of the fusion proteins in BL21 bacteria containing a DE3 lysogen and carrying pLysS was done as previously described (28). Purification using Ni^2+-NTA agarose (Qiagen) followed standard protocols (The QIAexpressionist, Qiagen). Following elution of A.A. 40-89 and A.A. 331-391 in 500 and 150 mM imidazole, respectively, the peptides were dialyzed into a buffer containing 50 mM Tris (pH 7.5), 2.5 mM EDTA, and 0.3 M NaCl.
(§4) Gel shift assays were done as previously described (28). All reactions contained 20 mM N-2-hydroxyethylpiperazine-N′-2-ethanesulfonic acid (HEPES; pH 7.6), 2 mM EDTA, 10% glycerol, 0.1% Nonidet P-40, and 0.3 M NaCl. Proteins were mixed in volume of 15 μl. The labeled DNA and 3 μg of poly(dI)•poly(dC) (Pharmacia) in 8 μl were added with mixing. The reactions were then incubated 30-45 minutes at room temperature. Reactions were separated by electrophoresis at 15-25 mA through a 4% polyacrylamide gel in 0.5×TBE (45 mM Tris-borate and 1 mM EDTA). Gels were dried on 3MM chromatography paper (Whatman) at 80° C. for 1 hour and then exposed to phosphorimager screens. The percentage of DNA linked is determined by dividing the amount of linked DNA by the total amount of DNA in the lane.

[2] = tested on: DNA with two EBNA1-binding sites; assay: Gel shift assay: binding of the peptides to DNA in the absence of NΔ360; settings: for Concentration reducing linking to 50% as percentage of concentration required to bind 50% of the DNA: 6.5 nM dimers of NΔ360, DNA binding in absence of NΔ360; for Difference between Ki and concentration which bound 50% of the DNA: linking by NΔ360 vs DNA binding by peptide alone
Description: as §1, with “They were quantified by making serial dilutions in the presence of ethidium bromide (0.5 μg/mL) and comparing their intensities, when exposed to ultraviolet light, to that of similar dilutions of a standard DNA.” left out
as §4
(§5) FIG. 3A: 20 fmols of a DNA with two EBNA1-binding sites were combined with the indicated concentrations of dimers of NΔ360 and A.A. 331-391 prior to separation by electrophoresis through a 4% polyacrylamide gel. […] The positions of linked DNA, unbound DNA, and DNA with one and two sites occupied by NΔ360 (1 and 2, respectively) are indicated. […] The percentage bound is the fraction of the total DNA in the lane which is shifted above the bracket for unbound DNA. […] The standard deviations are from three separate experiments.

[3] = biological target: T1, NΔ360 (derivative of EBNA1) (Epstein-Barr virus, UniProt P03211); type: biochemical; settings: for Ki: 6.5 nM dimers of NΔ360, 20 fmols DNA with two EBNA1-binding sites, Ki = concentration of competitor which inhibits linking to 50%, read-out: Ki against NΔ360
T1 construct: NΔ360 and NΔ389 have a methionine followed by amino acids 361 and 390 to the carboxy-terminus, respectively; added initiator methionine (N); made in house; host or cells: E. coli
Description: as §1, with “They were quantified by making serial dilutions in the presence of ethidium bromide (0.5 μg/mL) and comparing their intensities, when exposed to ultraviolet light, to that of similar dilutions of a standard DNA.” left out
as §2, §3, §4, §5

GAL4(1-94)&54-89 = biological target: T2, GAL4(1-94)&54-89 (Epstein-Barr virus, UniProt P03211); assay: Gel shift assay: inhibition of DNA-linking by GAL4(1-94)&54-89; type: biochemical; settings: 2.5-fold molar excess of competitor; DNA with five GAL4-binding sites (FIG. 2A)
T2 construct: made in house
Procedure: as §1, with “(32). […]” for “(32).”
Gel shift assays were done as previously described (28). […] The percentage of DNA linked is determined by dividing the amount of linked DNA by the total amount of DNA in the lane.
The ability of GAL4(1-94)&54-89 (FIG. 1) to link DNAs containing five GAL4-binding sites was tested in the absence of any competitor and in the presence of a 2.5-fold molar excess of three derivatives of EBNA1 (FIG. 1). […] For both FIGS. 2A and B the reactions were manipulated and analyzed to determine the percentage of maximum DNA linked as in FIG. 3. […]

[4] = DNA with two EBNA1-binding sites, read-out: Concentration for 50% inhibition of linking by NΔ360
[5] = linking by NΔ360, DNA with two binding sites

Substance | Ki [1] [nM] | Ki for linking by bEBNA1 relative to linking by NΔ360 [1] [fold] | Effectiveness of competition with linking by bEBNA1 relative to linking by NΔ360 [1] | Concentration reducing linking to 50% as percentage of concentration required to bind 50% of the DNA [2] [%] | Difference between Ki and concentration which bound 50% of the DNA [2] [fold] | Ki [3] [nM] | IC50 [3, 4] [nM] | further results
A.A. 40-89: EBNA1 amino acids 40-89 fused to an amino-terminal epitope (T7 Tag) and 6 carboxy-terminal histidines, expressed in bacteria | 7600 | 140 | approximately 1% | 1 | 100 | 55 | 55 | –
A.A. 331-391: EBNA1 amino acids 331-391 fused to an amino-terminal epitope (T7 Tag) and 6 carboxy-terminal histidines, expressed in bacteria | 3300 | 110 | approximately 1% | 2 | 50 | 30 | 30 | Excess of competitor relative to NΔ360 that halves the percentage of DNA linked ([3]; DNA with two EBNA1-binding sites): 5 fold; Effectiveness of competition for linking of the ten binding site DNA relative to the two binding site DNA ([3]; linking by NΔ360, data not shown): approximately 0.3%
GAL4(1-94): Amino acids 1 to 94 of the yeast transactivator GAL4 plus eight carboxy-terminal amino acids coded by the poly-cloning region [reference compound] | – | – | – | – | – | – | – | Inhibition of linking by NΔ360 ([3]; 4.5-fold molar excess of GAL4-derivative, DNA with two EBNA1-binding sites (FIG. 2B)): did not inhibit linking
NΔ360: EBNA1 derivative lacking the first 360 amino acids, expressed in E. coli | – | – | – | – | – | – | – | Inhibition of linking by GAL4(1-94)&54-89 (GAL4(1-94)&54-89): inhibited linking
Poly-Lysine [reference compound] | 11000 | 6 | – | – | – | 1900 | – | IC50 ([3]; DNAs with two EBNA1-binding sites, read-out: Concentration inhibiting linking by NΔ360 to 50%): 1900 nM; Ki of polyK relative to Ki of A.A. 40-89 [3, 5]: 35 fold; Ki of polyK relative to Ki of A.A. 331-391 [3, 5]: 60 fold
